The values that follow come from article PMC7457965 (Bioorganic & Medicinal Chemistry, 2020).

Like-named read-outs stand apart in the source and are kept apart here. A value given as a limit tells only on which side of the number the result lay.

One series relates to ZIKV (MR766). The series is classed as cell-based, Zika virus. The conditions noted are these: read-out: ZIKV EC50.
A further series has as its system DENV (New Guinea C). The series is classed as cell-based, Dengue virus. The note with it: read-out: DENV EC50: effective concentration showing 50% inhibition of virus-induced CPE.
Another series deals with YFV (17D). The series is classed as cell-based, Yellow Fever Virus. The note with it: read-out: YFV EC50.
For series [1], the system named is Ebola (EBOV) virus. The note with it: cited from earlier work.
In another series the target is T1, DENV NS5-MTase (Dengue virus type 3, UniProt Q6YMS4).
T1 sequence (Q6YMS4 2492-2753 limits assumed): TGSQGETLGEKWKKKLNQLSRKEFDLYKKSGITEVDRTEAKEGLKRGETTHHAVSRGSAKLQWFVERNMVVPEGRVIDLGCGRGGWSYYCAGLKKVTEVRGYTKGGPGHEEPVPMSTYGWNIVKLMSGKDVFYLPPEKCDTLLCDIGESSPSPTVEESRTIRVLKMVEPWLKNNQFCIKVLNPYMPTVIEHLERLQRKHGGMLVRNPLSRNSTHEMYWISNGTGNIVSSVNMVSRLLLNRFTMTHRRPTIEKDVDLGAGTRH
The series can be described thus: radioactive filter-binding 2'-O-MTase assay, DENV. The conditions noted are these: 50 µM compound. In kind it is biochemical, DENV-3.

The target in another series is human N7 (RNMT) MTase (Homo sapiens, UniProt O43148). The series is classed as biochemical. The note with it: 50 µM.
Sequence of human N7 (RNMT) MTase (O43148 whole entry): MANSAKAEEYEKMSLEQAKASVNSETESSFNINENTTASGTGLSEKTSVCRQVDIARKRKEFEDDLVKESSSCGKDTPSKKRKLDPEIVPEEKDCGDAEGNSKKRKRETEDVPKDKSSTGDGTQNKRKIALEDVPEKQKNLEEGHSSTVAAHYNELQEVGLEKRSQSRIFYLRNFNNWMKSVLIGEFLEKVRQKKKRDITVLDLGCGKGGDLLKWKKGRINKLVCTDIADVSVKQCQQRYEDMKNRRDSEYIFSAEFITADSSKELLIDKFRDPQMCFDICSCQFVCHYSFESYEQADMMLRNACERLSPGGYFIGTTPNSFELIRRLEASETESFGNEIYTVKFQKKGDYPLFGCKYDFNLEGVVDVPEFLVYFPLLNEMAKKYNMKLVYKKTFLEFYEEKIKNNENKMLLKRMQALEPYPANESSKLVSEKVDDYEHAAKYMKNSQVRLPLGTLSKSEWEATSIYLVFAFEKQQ
In another series the target is ZIKV NS5-MTase (Zika virus, UniProt A0A024B7W1). Put plainly: radioactive filter-binding 2'-O-MTase assay, ZIKV. The series is classed as biochemical. The note with it: 50 µM compound.
Sequence of ZIKV NS5-MTase (A0A024B7W1 2521-2785 limits assumed): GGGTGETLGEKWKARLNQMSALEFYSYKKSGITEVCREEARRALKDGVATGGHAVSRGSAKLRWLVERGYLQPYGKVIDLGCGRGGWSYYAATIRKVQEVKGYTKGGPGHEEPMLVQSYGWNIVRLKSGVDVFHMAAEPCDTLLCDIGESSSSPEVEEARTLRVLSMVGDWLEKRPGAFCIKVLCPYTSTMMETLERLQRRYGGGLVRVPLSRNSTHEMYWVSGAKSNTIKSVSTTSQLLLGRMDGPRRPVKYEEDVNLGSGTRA
A short description of series [2]: preliminary minimum tolerated dose. The series is classed as in vivo.
In a further series the test system is SARS. The note with it: read-out: activity against SARS; cited from earlier work.
Series [3] concerns Ebola (EBOV) virus. The series is classed as cell-based. The conditions noted are these: read-out: EC50 against EBOV.

For the substance “2-((4-(2,4-dimethoxypyrimidine-5-yl)-1H-imidazol-1-yl) methoxy)ethan-1-ol [Compound 2]”, the EC50 was > 76 µM in the series with ZIKV (MR766), > 50 µM with DENV (New Guinea C) and > 58 µM with YFV (17D).
Take “2-((4-(2-amino-4-methoxypyrimidin-5-yl)-1H-imidazol-1-yl) methoxy)ethan-1-ol [Compound 1]”: the “activity against Ebola (EBOV) virus” value in the series on Ebola (EBOV) virus [1] is “active”. Moreover, the EC50 with Ebola (EBOV) virus [1] (read-out: EC50 against Ebola (EBOV) virus) is 2.2 ± 0.3 µM; in the series with DENV (New Guinea C), 0.057 µM; with YFV (17D), 0.37 µM. Also, on DENV NS5-MTase, the “Percent inhibition of DENV MTase” value is “did not exhibit a significant inhibitory effect”. The “inhibition of human N7 MTase activity” value against human N7 (RNMT) MTase was “did not exhibit a significant inhibitory effect”. Further, at ZIKV NS5-MTase, the “Percent inhibition of ZIKV MTase” value is given as “did not exhibit a significant inhibitory effect”. Moreover, the “minimum tolerated dose (MTD) studies: no toxicity up to” value in series [2] is on record as ≥ 250 mgs/kg.
As for “2-((4-(2-amino-4-methoxypyrimidin-5-yl)-1H-imidazol-1-yl)methoxy)ethyl acetate [Compound 1-Ac]”, the “activity against Ebola (EBOV) virus” value in the series on Ebola (EBOV) virus [1] was “active”. Moreover, the EC50 in the series with ZIKV (MR766) was > 100 µM; in the series with DENV (New Guinea C), 6.1 µM; in the series on YFV (17D), > 57 µM; with SARS, 11.9 µM.
For “2-((4–2,4-dimethoxypyrimidin-5-yl)-1H-imidazol-1-yl)methoxy) ethyl acetate [Compound 2-Ac]”, the figures for the EC50 in the series with Ebola (EBOV) virus [3], in the series with DENV (New Guinea C) and in the series with YFV (17D) were 8.2 ± 1.8 µM, 19 µM and > 58 µM, respectively.
Regarding “2-ethylbutyl ((2-((4-(2,4-dimethoxypyrimidin-5-yl)-1H-imidazol-1-yl)methoxy)ethoxy)-(phenoxy)-phosphoryl)alaninate [Compound 2-MG]”, the EC50 in the series with ZIKV (MR766) is > 56 µM; in the series with DENV (New Guinea C), > 53 µM; in the series on YFV (17D), > 53 µM.
On to “2-ethylbutyl((2-((4-(2-amino-4-methoxypyrimidin-5-yl)-1H-imidazol-1-yl)methoxy)-ethoxy)-(phenoxy)phosphoryl)alaninate [Compound 1-MG]”, for which the “activity against Ebola (EBOV) virus” value with Ebola (EBOV) virus [1] was “active”. The figures for the EC50 in the series on ZIKV (MR766), in the series with DENV (New Guinea C) and in the series on YFV (17D) were > 31 µM, > 57 µM and > 55 µM, respectively.
